≈ marks a conversion by molar mass, not a printed value. Where “and” joins values, the source holds several entries; their conditions need not be identical. Equal entries are not always repeated. Where two headings read alike, the source gives them in different places. Residues, ends and D or L forms follow the SMILES beside them.
Tests used:
S. pyogenes ATCC 19615 = assay: MIC/MBC broth microdilution, S. pyogenes; type: cell-based, Streptococcus pyogenes; conditions: S. pyogenes
Procedure, shortened: (§1)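 Standard NCCLS broth microdilution in BHI broth, inoculum approx. 10^5 CFU/mL, serially diluted peptidomimetics, 18 h at 37 °C. MIC was the lowest concentration with no obvious growth (≥90% inhibition versus untreated); MBC was the lowest giving ≤3 colonies on subculture (≥99.9% kill).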

fibroblasts (46BR.1N) = assay: LDH cytotoxicity test, fibroblasts; type: cell-based; conditions: 48 h
Procedure, shortened: (§2)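 HaCaT keratinocytes and 46BR.1N fibroblasts, 5000 cells per well, grown 24 h, then exposed to peptidomimetics at 50, 100 and 150 μg/mL in serum-free medium for 48 h. LDH release in supernatant read at 450 nm, normalized to untreated (0%) and 1% Triton X-100 (maximal) controls.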

S. mutans c.i. = assay: MIC/MBC broth microdilution, S. mutans; type: cell-based, Streptococcus mutans
Procedure, shortened: as §1

S. schleiferi c.i. = assay: MIC/MBC broth microdilution, S. schleiferi; type: cell-based, Staphylococcus schleiferi
Procedure, shortened: as §1

P. vulgaris ATCC 6896 = assay: MIC/MBC broth microdilution, P. vulgaris; type: cell-based, Proteus vulgaris
Procedure, shortened: as §1

[1] = system: immortalized human HaCaT keratinocytes; assay: XTT cell proliferation assay, keratinocytes; type: cell-based; conditions: for antiproliferative effect (decrease vs control): up to 150 μg/mL, A-193 and A-179 after 48 h
Procedure, shortened: (§3)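 Cells at 37 °C, 5% CO2 received peptidomimetics in serum-free HG-DMEM for 48 or 72 h; for 72 h, half the medium was renewed and peptide re-added at 48 h. XTT reagent was then incubated 4 h and absorbance read at 490 nm; Mann–Whitney U test, p ≤ 0.05.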

E. faecalis c.i. = assay: MIC/MBC broth microdilution, E. faecalis; type: cell-based, Enterococcus faecalis
Procedure, shortened: as §1

S. aureus ATCC 43300 = assay: MIC/MBC broth microdilution, S. aureus; type: cell-based, Staphylococcus aureus; conditions: S. aureus
P. aeruginosa ATCC 10145 = assay: MIC/MBC broth microdilution, P. aeruginosa; type: cell-based
Procedure, shortened: as §1

E. coli ATCC 25922 = assay: MIC/MBC broth microdilution, E. coli; type: cell-based, Escherichia coli
Procedure, shortened: as §1

[2] = Hydrophobicity by reverse-phase chromatography; type: physicochemical; conditions: acetonitrile content in the mobile phase at the retention time
From the text: Reverse-phase chromatography was employed to assess the hydrophobicity characteristics of the peptidomimetics. Hydrophobicity was quantified by determining the acetonitrile content in the mobile phase at the retention time of a peptidyl derivative (Table S2). The least hydrophobic compound (40% acetonitrile) was A-198, which aligns with the calculations of hydrophobicity by SwissADME and pkCSM (Table ). Next in the hydrophobicity sequence were A-197, A-220, A-219, A-174, and A-221, eluting with 42.5-43.9% of acetonitrile. Then there were followed by […], and A-179, with the acetonitrile percentage of 44.8-49.8. The compounds A-176, A-20, A-152, A-134, and A-210 needed over 50% of acetonitrile to be eluted from the column.

[3] = system: K. pneumoniae ATCC 700603; assay: MIC/MBC broth microdilution, K. pneumoniae; type: cell-based
Procedure, shortened: as §1

S. intemrdius c.i. = assay: MIC/MBC broth microdilution, S. intermedius; type: cell-based, Staphylococcus intermedius
Procedure, shortened: as §1

[4] = system: human dermal fibroblast cell line (46BR.1N); assay: XTT cell proliferation assay, fibroblasts; type: cell-based; conditions: for antiproliferative effect (decrease vs control): up to 150 μg/mL, A-193 and A-179 after 48 h
Procedure, shortened: as §3

S. cohnii c.i. = assay: MIC/MBC broth microdilution, S. cohnii; type: cell-based, Staphylococcus cohnii
Procedure, shortened: as §1

[5] = system: immortalized human keratinocytes (HaCaT); assay: LDH cytotoxicity test, keratinocytes; type: cell-based; conditions: 48 h
Procedure, shortened: as §2

[6] = Stability / presence in human plasma; type: in vitro ADME; conditions: 24 h incubation at 37 °C
Procedure: Blood was drawn from healthy volunteers, and lithium/heparin holding tubes were used to remove the clot by centrifugation. The plasma was aliquoted in sterile conditions and incubated with the desired compounds for 24 h at 37 °C. The samples were prepared under sterile conditions following the previously described protocol. The samples were collected at six time points (0, 1, 2, 3, 6, and 24 h) for determining stability in water solutions, and time points of 0, 10, 20, 30, 40, 50, and 60 min, as well as of 2, 3, 6, and 24 h, for determining stability in human plasma. The analysis was performed by HPLC using a Kromasil C8 column (5 μm, 90 Å, 1.0 mm × 250 mm) monitored by a PDA or ELDS-LT II detector. For quantification, peak areas were compared to a calibration curve calculated by Shimadzu LCsolution Software (Kyoto, Japan). Graphs were prepared in GraphPad Prism (Boston, USA).

[7] = cited from earlier work
[8] = XTT, 48 and 72 h, 0.01–150 μg/mL
[9] = A-196 0.01–10 μg/mL, A-219 above 0.1 μg/mL, A-213 lower concentrations

SMILES: CC(C)[C@@H](CNC(=O)C(=Cc1ccccc1)c1ccccc1)NC(=O)[C@H](CCCNC(=N)N)NC(=O)[C@H](CCCNC(=N)N)NC(=O)OCc1ccccc1 [Compound A-179]
- MBC (S. pyogenes ATCC 19615; H2O): 32 µg/mL (≈ 42.4 µM)
- MIC (S. pyogenes ATCC 19615; H2O): 16 µg/mL (≈ 21.2 µM)
- MBC (S. pyogenes ATCC 19615; water additive DMSO): 32 µg/mL (≈ 42.4 µM)
- MIC (S. pyogenes ATCC 19615; water additive DMSO): 16 µg/mL (≈ 21.2 µM)
- MBC (S. pyogenes ATCC 19615; water additive EtOH): 32 µg/mL (≈ 42.4 µM)
- MIC (S. pyogenes ATCC 19615; water additive EtOH): 8 µg/mL (≈ 10.6 µM)
- cytotoxicity (LDH), in words (fibroblasts (46BR.1N); 50-150 μg/mL): less pronounced in fibroblasts
- MIC (S. mutans c.i.; H2O): > 512 µg/mL
- MIC (S. mutans c.i.; water additive DMSO): > 512 µg/mL
- MIC (S. mutans c.i.; water additive EtOH): > 512 µg/mL
- MBC (S. schleiferi c.i.; water additive EtOH): 256 µg/mL (≈ 339 µM)
- MIC (P. vulgaris ATCC 6896; H2O): > 512 µg/mL
- MIC (P. vulgaris ATCC 6896; water additive DMSO): > 512 µg/mL
- MIC (P. vulgaris ATCC 6896; water additive EtOH): > 512 µg/mL
- effect on proliferation, in words [1, 8]: negative impact
- antiproliferative effect (decrease vs control) [1]: ~50%
- MBC (E. faecalis c.i.; water additive DMSO): 256 µg/mL (≈ 339 µM)
- MIC (E. faecalis c.i.; water additive DMSO): 256 µg/mL (≈ 339 µM)
- MBC (E. faecalis c.i.; water additive EtOH): 256 µg/mL (≈ 339 µM)
- MBC (S. aureus ATCC 43300; H2O): 32 µg/mL (≈ 42.4 µM)
- MIC (S. aureus ATCC 43300; H2O): 32 µg/mL (≈ 42.4 µM)
- MBC (S. aureus ATCC 43300; water additive DMSO): 32 µg/mL (≈ 42.4 µM)
- MIC (S. aureus ATCC 43300; water additive DMSO): 16 µg/mL (≈ 21.2 µM)
- MBC (S. aureus ATCC 43300; water additive EtOH): 32 µg/mL (≈ 42.4 µM)
- MIC (S. aureus ATCC 43300; water additive EtOH): 32 µg/mL (≈ 42.4 µM)
- MIC (P. aeruginosa ATCC 10145; H2O): 256 µg/mL (≈ 339 µM)
- MIC (P. aeruginosa ATCC 10145; water additive DMSO): > 512 µg/mL
- MIC (P. aeruginosa ATCC 10145; water additive EtOH): > 512 µg/mL
- MIC (E. coli ATCC 25922; H2O): > 512 µg/mL
- MIC (E. coli ATCC 25922; water additive DMSO): > 512 µg/mL
- MIC (E. coli ATCC 25922; water additive EtOH): > 512 µg/mL
- % AcCN (acetonitrile required for elution from the column) [2]: 49.8% and 44.8–49.8%
- MIC ([3]; H2O): 512 µg/mL (≈ 678 µM)
- MIC ([3]; water additive DMSO): > 512 µg/mL
- MIC ([3]; water additive EtOH): > 512 µg/mL
- MBC (S. intemrdius c.i.; H2O): 32 µg/mL (≈ 42.4 µM)
- MIC (S. intemrdius c.i.; H2O): 16 µg/mL (≈ 21.2 µM)
- MBC (S. intemrdius c.i.; water additive DMSO): 32 µg/mL (≈ 42.4 µM)
- MIC (S. intemrdius c.i.; water additive DMSO): 16 µg/mL (≈ 21.2 µM)
- MBC (S. intemrdius c.i.; water additive EtOH): 16 µg/mL (≈ 21.2 µM)
- MIC (S. intemrdius c.i.; water additive EtOH): 16 µg/mL (≈ 21.2 µM)
- effect on proliferation, in words [4, 8]: negative impact
- antiproliferative effect (decrease vs control) [4]: ~50%
- MBC (S. cohnii c.i.; H2O): 32 µg/mL (≈ 42.4 µM)
- MIC (S. cohnii c.i.; H2O): 16 µg/mL (≈ 21.2 µM)
- MBC (S. cohnii c.i.; water additive DMSO): 32 µg/mL (≈ 42.4 µM)
- MIC (S. cohnii c.i.; water additive DMSO): 32 µg/mL (≈ 42.4 µM)
- MIC (S. cohnii c.i.; water additive EtOH): 32 µg/mL (≈ 42.4 µM)
- cytotoxicity (LDH), in words ([5]; 50-150 μg/mL): cytotoxic to keratinocytes at all concentrations

SMILES: CC(C)C[C@H](NC(=O)[C@H](CCCNC(=N)N)NC(=O)OCc1ccccc1)C(=O)N[C@H](C(=O)NCCc1ccccc1)C(C)C [Compound A-196] (HELM PEPTIDE1{[O=C(OCc1ccccc1)[*:2]].R.L.V.[c1ccc(CCN[*:1])cc1]}$$$$V2.0)
- MBC (S. pyogenes ATCC 19615; water additive DMSO): 256 µg/mL (≈ 410 µM)
- MBC (S. pyogenes ATCC 19615; water additive EtOH): 256 µg/mL (≈ 410 µM)
- concentration at which cytotoxic effect starts (fibroblasts (46BR.1N); LDH): 150 µg/mL
- MBC (S. mutans c.i.; H2O): 256 µg/mL (≈ 410 µM)
- MIC (S. mutans c.i.; water additive DMSO): 32 µg/mL (≈ 51.3 µM)
- MBC (S. schleiferi c.i.; H2O): 16 µg/mL (≈ 25.6 µM)
- MIC (S. schleiferi c.i.; H2O): 16 µg/mL (≈ 25.6 µM)
- MBC (S. schleiferi c.i.; water additive DMSO): 16 µg/mL (≈ 25.6 µM)
- MIC (S. schleiferi c.i.; water additive DMSO): 16 µg/mL (≈ 25.6 µM)
- MBC (S. schleiferi c.i.; water additive EtOH): 32 µg/mL (≈ 51.3 µM)
- MIC (S. schleiferi c.i.; water additive EtOH): 16 µg/mL (≈ 25.6 µM)
- MIC (P. vulgaris ATCC 6896; H2O): > 512 µg/mL
- MIC (P. vulgaris ATCC 6896; water additive DMSO): > 512 µg/mL
- MIC (P. vulgaris ATCC 6896; water additive EtOH): > 512 µg/mL
- pro-proliferative effect above control [1, 9]: 5–20%
- antiproliferative effect (decrease vs control) [1]: up to 50%
- MIC (E. faecalis c.i.; H2O): > 512 µg/mL
- MIC (E. faecalis c.i.; water additive DMSO): > 512 µg/mL
- MBC (E. faecalis c.i.; water additive EtOH): > 512 µg/mL
- MIC (E. faecalis c.i.; water additive EtOH): 512 µg/mL (≈ 821 µM)
- MBC (S. aureus ATCC 43300; H2O): 256 µg/mL (≈ 410 µM)
- MBC (S. aureus ATCC 43300; water additive DMSO): 256 µg/mL (≈ 410 µM)
- MIC (P. aeruginosa ATCC 10145; H2O): > 512 µg/mL
- MIC (P. aeruginosa ATCC 10145; water additive DMSO): > 512 µg/mL
- MIC (P. aeruginosa ATCC 10145; water additive EtOH): > 512 µg/mL
- MIC (E. coli ATCC 25922; H2O): > 512 µg/mL
- MIC (E. coli ATCC 25922; water additive DMSO): > 512 µg/mL
- MIC (E. coli ATCC 25922; water additive EtOH): > 512 µg/mL
- MIC ([3]; H2O): > 512 µg/mL
- MIC ([3]; water additive DMSO): > 512 µg/mL
- MIC ([3]; water additive EtOH): > 512 µg/mL
- present in human plasma [6]: 85–90%
- MIC (S. intemrdius c.i.; H2O): 32 µg/mL (≈ 51.3 µM)
- pro-proliferative effect above control [4, 9]: 5–20%
- antiproliferative effect (decrease vs control) [4]: up to 50%
- MBC (S. cohnii c.i.; water additive DMSO): 256 µg/mL (≈ 410 µM)
- MBC (S. cohnii c.i.; water additive EtOH): 256 µg/mL (≈ 410 µM)
- concentration at which cytotoxic effect starts ([5]; LDH): 150 µg/mL

SMILES: CNC(C)C1CCC(N)C(OC2C(N)CC(N)C(OC3OCC(C)(O)C(NC)C3O)C2O)O1 (centres unmarked) [gentamicin]
- VD values ([7]; in vivo): −0.699 to −0.432 log L/kg

SMILES: CN[C@H](CC(C)C)C(=O)N[C@H]1C(=O)N[C@@H](CC(N)=O)C(=O)N[C@H]2C(=O)N[C@H]3C(=O)N[C@H](C(=O)N[C@H](C(=O)O)c4cc(O)cc(O)c4-c4cc3ccc4O)[C@H](O)c3ccc(c(Cl)c3)Oc3cc2cc(c3O[C@@H]2O[C@H](CO)[C@@H](O)[C@H](O)[C@H]2O[C@H]2C[C@](C)(N)[C@H](O)[C@H](C)O2)Oc2ccc(cc2Cl)[C@H]1O [vancomycin]
- VD values ([7]; reference number not given, probably ref 84, 85): −0.398 to 0 log L/kg
